# Assay results as given in patent US7135466B2 (Kirin Beer Kabushiki Kaisha, priority 1999, dated 2006).
# Like-named read-outs stand apart in the source and are kept apart here.
# Legend:
# c-kit = target: T1, c-kit (Homo sapiens, UniProt P10721); experiment: Inhibitory activity against c-kit autophosphorylation (MO7e cells, h-SCF); format: cell-based; details: for IC50: MO7e cells, read-out: c-kit IC50; for inhibition at 1 µM: Mo7e, at 1000 nM
# T1 construct: MO7e (human megakaryocytic leukemia cell line) which had been arrested for 20 hr; endogenous in cells; host or cells: MO7e human megakaryocytic leukemia cell line
# T1 sequence (P10721 26-976): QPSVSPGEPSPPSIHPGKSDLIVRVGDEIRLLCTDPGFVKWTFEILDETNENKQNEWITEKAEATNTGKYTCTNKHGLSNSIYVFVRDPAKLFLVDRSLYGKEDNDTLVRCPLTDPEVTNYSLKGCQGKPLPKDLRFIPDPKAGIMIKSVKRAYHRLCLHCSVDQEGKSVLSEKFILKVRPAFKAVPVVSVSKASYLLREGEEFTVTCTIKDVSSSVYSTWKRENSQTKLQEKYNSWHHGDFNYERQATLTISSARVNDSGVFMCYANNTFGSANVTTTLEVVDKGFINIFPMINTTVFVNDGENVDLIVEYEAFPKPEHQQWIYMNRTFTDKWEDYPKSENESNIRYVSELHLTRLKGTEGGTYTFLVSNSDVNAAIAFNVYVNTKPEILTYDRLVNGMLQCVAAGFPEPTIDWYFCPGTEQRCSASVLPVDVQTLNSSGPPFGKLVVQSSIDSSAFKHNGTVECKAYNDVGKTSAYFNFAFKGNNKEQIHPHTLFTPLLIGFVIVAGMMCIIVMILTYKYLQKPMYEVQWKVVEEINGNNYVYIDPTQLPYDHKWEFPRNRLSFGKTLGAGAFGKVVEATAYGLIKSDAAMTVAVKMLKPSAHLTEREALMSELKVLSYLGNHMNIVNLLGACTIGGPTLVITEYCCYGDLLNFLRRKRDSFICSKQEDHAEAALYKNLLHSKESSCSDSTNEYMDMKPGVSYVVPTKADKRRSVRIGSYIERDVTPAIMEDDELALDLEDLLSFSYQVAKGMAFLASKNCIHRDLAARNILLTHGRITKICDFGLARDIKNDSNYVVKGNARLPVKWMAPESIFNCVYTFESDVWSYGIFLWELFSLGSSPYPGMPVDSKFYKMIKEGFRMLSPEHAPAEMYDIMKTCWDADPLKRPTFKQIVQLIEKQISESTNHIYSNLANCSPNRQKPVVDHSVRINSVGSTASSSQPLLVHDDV
# How it was run: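 First, human megakaryocytic leukemia MO7e cells arrested 20 hr receive compound for one hour. Second, SCF stimulation (50 ng/ml) runs 5 min, after which cells are solubilized. Third, tyrosine-phosphorylated c-kit in the lysate is quantified by sandwich ELISA with absorbance at 450 nm.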
# PDGF-Ra = target: T2, PDGF-Ra (Homo sapiens, UniProt P16234); experiment: Inhibitory activity against PDGF-Ra phosphorylation by PDGF-AA stimulation using G292; format: cell-based; details: for IC50: > means inhibition at indicated concentration not more than 50%, < and << not less than 50%, read-out: PDGF (E) IC50; for inhibition at 0.1 µM: G292, figure in parentheses in >100( ), at 100 nM, read-out: PDGF (E) inhibition (%) at 100 nM
# T2 construct: host or cells: G-292 human osteosarcoma cells
# T2 sequence (P16234 24-1089): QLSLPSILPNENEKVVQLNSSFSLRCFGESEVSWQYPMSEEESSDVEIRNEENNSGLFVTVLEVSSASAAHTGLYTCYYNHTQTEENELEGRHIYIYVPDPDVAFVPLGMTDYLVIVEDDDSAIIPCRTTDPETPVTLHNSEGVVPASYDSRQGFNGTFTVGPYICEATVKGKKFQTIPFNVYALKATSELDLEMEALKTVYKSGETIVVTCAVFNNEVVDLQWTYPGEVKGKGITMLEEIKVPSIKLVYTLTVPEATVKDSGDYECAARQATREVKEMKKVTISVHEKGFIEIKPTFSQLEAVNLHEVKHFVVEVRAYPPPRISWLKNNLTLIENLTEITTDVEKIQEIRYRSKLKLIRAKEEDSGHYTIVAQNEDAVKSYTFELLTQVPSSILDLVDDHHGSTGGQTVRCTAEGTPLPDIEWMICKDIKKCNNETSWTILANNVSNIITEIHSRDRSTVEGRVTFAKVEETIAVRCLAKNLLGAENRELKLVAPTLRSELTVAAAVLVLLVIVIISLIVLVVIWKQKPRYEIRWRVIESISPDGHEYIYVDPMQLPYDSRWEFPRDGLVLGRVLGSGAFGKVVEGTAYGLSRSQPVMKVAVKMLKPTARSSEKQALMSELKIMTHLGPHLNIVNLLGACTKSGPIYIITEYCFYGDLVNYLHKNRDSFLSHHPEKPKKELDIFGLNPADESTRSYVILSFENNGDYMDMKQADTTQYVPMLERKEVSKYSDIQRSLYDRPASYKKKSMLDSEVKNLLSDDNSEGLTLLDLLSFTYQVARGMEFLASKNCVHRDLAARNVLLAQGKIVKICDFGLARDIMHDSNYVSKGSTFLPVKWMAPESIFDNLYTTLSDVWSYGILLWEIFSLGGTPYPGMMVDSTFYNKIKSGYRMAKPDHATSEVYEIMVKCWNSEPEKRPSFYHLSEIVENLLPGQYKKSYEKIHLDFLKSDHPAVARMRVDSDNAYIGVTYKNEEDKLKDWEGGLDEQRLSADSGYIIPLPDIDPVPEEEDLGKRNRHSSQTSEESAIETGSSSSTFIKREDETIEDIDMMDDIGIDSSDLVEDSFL
# How it was run: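 Read-out: A450 from a sandwich ELISA (PY-20 capture, anti-PDGF-Ra detection, peroxidase colour) of lysates from G-292 cells given compound for 1 hr at 37 °C before a 5 min challenge with PDGF-AA at 50 ng/ml.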
SMILES,IC50 (PDGF-Ra),IC50 (c-kit; h-SCF 50 ng/ml),IC50 (PDGF-Ra; Pharmacological Test Example 1),IC50 (c-kit; 50 ng/ml h-SCF),further results
"COc1ccccc1CCC(=O)NC(=S)Nc1ccc(Oc2ccnc3cc(OC)c(OC)cc23)cc1 [Example 1025, N-{4-[(6,7-Dimethoxy-4-quinolyl)oxy]phenyl}-N′-[3-(2-methoxyphenyl)propanoyl]thiourea]",15 nM,–,–,–,IC50 (c-kit; h-SCF stimulation): 194 nM
"COc1cc2ncnc(Oc3ccc(NC(=O)OCc4ccc(C(F)(F)F)cc4)cc3)c2cc1OC [Example 24, 4-(Trifluoromethyl)benzyl N-{4-[(6,7-dimethoxy-4-quinazolinyl)oxy]phenyl}carbamate]",–,129 nM,< 10 nM,–,–
"COc1cc2ncnc(Oc3ccc(NC(=O)NC4CCN(Cc5ccccc5Cl)C4)cc3)c2cc1OC (stereo not drawn) [Example 580, N-[1-(2-Chlorobenzyl)tetrahydro-1H-3-pyrrolyl]-N′-{4-[(6,7-dimethoxy-4-quinazolinyl)oxy]phenyl}urea]",14 nM,–,–,84 nM,–
"COc1cc2ncnc(Oc3cc(C)c(NC(=O)OC4CCCC4)cc3C)c2cc1OC [Example 392, Cyclopentyl N-{4-[(6,7-dimethoxy-4-quinazolinyl)oxy]-2,5-dimethylphenyl}carbamate]",–,432 nM,> 100 nM,–,inhibition at 0.1 µM (PDGF-Ra): 38%
"COc1cc2nccc(Oc3ccc(NC(=O)OC(C)c4ccccc4Cl)cc3)c2cc1OC (stereo not drawn) [Example 13, 1-(2-Chlorophenyl)ethyl N-{4-[(6,7-dimethoxy-4-quinolyl)oxy]phenyl}carbamate]",–,135 nM,< 10 nM,–,–
"COc1cc2nccc(Oc3ccc(NC(=S)NC(=O)Cc4ccccc4Cl)cc3)c2cc1OC [Example 723, N-[2-(2-Chlorophenyl)acetyl]-N′-{4-[(6,7-dimethoxy-4-quinolyl)oxy]phenyl}thiourea]",17 nM,–,–,380 nM,–
"CCCCC(CC)OC(=O)Nc1ccc(Oc2ccnc3cc(OC)c(OC)cc23)cc1 (stereo not drawn) [Example 329, 1-Ethylpentyl N-{4-[(6,7-dimethoxy-4-quinolyl)oxy]phenyl}carbamate]",–,253 nM,< 10 nM,–,–
"CCN(CC)CCNC(=S)Nc1ccc(Oc2ccnc3cc(OC)c(OC)cc23)cc1 [Example 589, N-{4-[(6,7-Dimethoxy-4-quinolyl)oxy]phenyl}-N′-(2-diethylaminoethyl)thiourea]",28 nM,–,–,487 nM,–
"COc1cc2ncnc(Oc3ccc(NC(=O)OC4CCCCC4)cc3)c2cc1OC [Example 312, Cyclohexyl N-{4-[(6,7-dimethoxy-4-quinazolinyl)oxy]phenyl}carbamate]",–,29 nM,< 10 nM,–,–
"CCN(CC)CCNC(=O)Nc1ccc(Oc2ncnc3cc(OC)c(OC)cc23)cc1OC [Example 630, N-[2-(Diethylamino)ethyl]-N′-{4-[(6,7-dimethoxy-4-quinazolinyl)oxy]-2-methoxyphenyl}urea]",36 nM,–,–,–,inhibition at 1 µM (c-kit; figure within parentheses in −( ) or >1000( )): 23%
"COc1cc2nccc(Oc3ccc(NC(=O)NCCN4CCOCC4)cc3)c2cc1OC [Example 628, N-{4-[(6,7-Dimethoxy-4-quinolyl)oxy]phenyl}-N′-(2-morpholinoethyl)urea]",< 10 nM,–,–,81 nM,–
"COc1cc2nccc(Oc3ccc(NC(=S)NC(=O)CCC4CCCC4)cc3F)c2cc1OC [Example 1029, N-(3-Cyclopentylpropanoyl)-N′-{4-[(6,7-dimethoxy-4-quinolyl)oxy]-3-fluorophenyl}thiourea]",5 nM,–,–,–,IC50 (c-kit; h-SCF stimulation): 126 nM
"COc1cc2nccc(Oc3ccc(NCCCOc4ccccc4Cl)cc3)c2cc1OC [Example 891, N-[3-(2-Chlorophenoxy)propyl]-N-{4-[(6,7-dimethoxy-4-quinolyl)oxy]phenyl}amine]",7 nM,–,–,–,IC50 (c-kit; h-SCF stimulation): 280 nM
"COc1cc2ncnc(Oc3ccc(NC(=S)NC(=O)C4CC4c4ccccc4)cc3)c2cc1OC (stereo not drawn) [Example 1060, N-{4-[(6,7-Dimethoxy-4-quinazolinyl)oxy]phenyl}-N′-[(2-phenylcyclopropyl)carbonyl]thiourea]",39 nM,–,–,–,inhibition at 1 µM (c-kit; figure in parentheses in −( )): 30%
"COc1cccc(NC(=O)COc2ccc(Oc3ncnc4cc(OC)c(OC)cc34)cc2)c1 [Example 800, N1-(3-Methoxyphenyl)-2-{4-[(6,7-dimethoxy-4-quinazolinyl)oxy]phenoxy}acetamide]",< 10 nM,–,–,30 nM,–
"CCCCOC(=O)Nc1ccc(Oc2ccnc3cc(OC)c(OC)cc23)c(C)c1C [Example 323, Butyl N-{4-[(6,7-dimethoxy-4-quinolyl)oxy]-2,3-dimethylphenyl}carbamate]",–,< 30 nM,< 10 nM,–,–

SMILES,IC50 (PDGF-Ra),IC50 (c-kit; h-SCF 50 ng/ml),IC50 (PDGF-Ra; Pharmacological Test Example 1),IC50 (c-kit; 50 ng/ml h-SCF),further results
"CCOCCC(=O)NC(=S)Nc1ccc(Oc2ccnc3cc(OC)c(OC)cc23)cc1 [Example 1065, N-{4-[(6,7-Dimethoxy-4-quinolyl)oxy]phenyl}-N′-(3-ethoxypropanoyl)thiourea]",19 nM,–,–,–,IC50 (c-kit; h-SCF stimulation): 566 nM
"COc1cc2nccc(Oc3cc(C)c(NC(=O)OCc4ccc(C(C)(C)C)cc4)cc3C)c2cc1OC [Example 59, 4-(Tert-butyl)benzyl N-{4-[(6,7-dimethoxy-4-quinolyl)oxy]-2,5-dimethylphenyl}carbamate]",–,–,57 nM,–,inhibition at 1 µM (c-kit; figure in parentheses in −( )): 33%
"COc1cc2ncnc(Oc3ccc(NC(=O)OCc4ccccc4C)c(Cl)c3)c2cc1OC [Example 320, 2-Methylbenzyl N-{2-chloro-4-[(6,7-dimethoxy-4-quinazolinyl)oxy]phenyl}carbamate]",–,596 nM,< 10 nM,–,–
"COc1cc(Oc2ccnc3cc(OC)c(OC)cc23)ccc1NC(=O)NN1CCCCC1 [Example 598, N-{4-[(6,7-Dimethoxy-4-quinolyl)oxy]-2-methoxyphenyl}-N′-(1-piperidinyl)urea]",19 nM,–,–,423 nM,–
"COc1cc2ncnc(Oc3ccc(NC(=O)N[C@H]4CCN(Cc5ccccc5)C4)c([N+](=O)[O-])c3)c2cc1OC [Example 578, N-[(3S)-1-Benzyltetrahydro-1H-3-pyrrolyl]-N′-{4-[(6,7-dimethoxy-4-quinazolinyl)oxy]-2-nitrophenyl}urea]",18 nM,–,–,104 nM,–
"CCc1ccc(C(=O)NC(=S)Nc2ccc(Oc3ccnc4cc(OC)c(OC)cc34)c(F)c2)cc1 [Example 997, N-{4-[(6,7-Dimethoxy-4-quinolyl)oxy]-3-fluorophenyl}-N′-(4-ethylbenzoyl)thiourea]",9 nM,–,–,–,IC50 (c-kit; h-SCF stimulation): 264 nM
"COc1cc2nccc(Oc3ccc(NC(=O)Oc4c(OC)cccc4OC)c(C)c3C)c2cc1OC [Example 282, 2,6-Dimethoxyphenyl N-{4-[(6,7-dimethoxy-4-quinolyl)oxy]-2,3-dimethylphenyl}carbamate]",–,48 nM,34 nM,–,–
"COc1cc2nccc(Oc3ccc(NCCOc4c(C)cccc4C)c(C)c3C)c2cc1OC [Example 894, N-{4-[(6,7-Dimethoxy-4-quinolyl)oxy]-2,3-dimethylphenyl}-N-[2-(2,6-dimethylphenoxy)ethyl]amine]",> 100 nM,–,–,–,inhibition at 1 µM (c-kit; figure in parentheses in −( )): 23%; inhibition at 0.1 µM (PDGF-Ra): 49%
"COc1ccc(OCCCOC(=O)Nc2ccc(Oc3ncnc4cc(OC)c(OC)cc34)cc2Cl)cc1 [Example 46, 3-(4-Methoxyphenoxy)propyl N-{2-chloro-4-[(6,7-dimethoxy-4-quinazolinyl)oxy]phenyl}carbamate]",–,388 nM,22 nM,–,–
"COc1cc2nccc(Oc3ccc(NCCOc4c(OC)cccc4OC)c(C)c3C)c2cc1OC [Example 884, N-[2-(2,6-Dimethoxyphenoxy)ethyl]-N-{4-[(6,7-dimethoxy-4-quinolyl)oxy]-2,3-dimethylphenyl}amine]",44 nM,–,–,–,inhibition at 1 µM (c-kit; figure in parentheses in −( )): 30%
"COc1cc2nccc(Oc3ccc(NC(=S)NC(=O)c4ccc5c(c4)OCO5)cc3)c2cc1OC [Example 989, N-(1,3-Benzodioxol-5-ylcarbonyl)-N′-{4-[(6,7-dimethoxy-4-quinolyl)oxy]phenyl}thiourea]",14 nM,–,–,–,IC50 (c-kit; h-SCF stimulation): 425 nM
"COc1cc(Oc2ncnc3cc(OC)c(OC)cc23)ccc1NC(=O)OC1CCCCC1 [Example 497, Cyclohexyl N-{4-[(6,7-dimethoxy-4-quinazolinyl)oxy]-2-methoxyphenyl}carbamate]",< 10 nM,–,–,82 nM,–
"CCC(OC(=O)Nc1ccc(Oc2ccnc3cc(OC)c(OC)cc23)c(C)c1C)c1ccccc1 (stereo not drawn) [Example 265, 1-Phenylpropyl N-{4-[(6,7-dimethoxy-4-quinolyl)oxy]-2,3-dimethylphenyl}carbamate]",–,122 nM,35 nM,–,–
"COc1cc2ncnc(Oc3ccc(NC(=O)NCCN4CCCCC4)cc3)c2cc1OC [Example 676, N-{4-[(6,7-Dimethoxy-4-quinazolinyl)oxy]phenyl}-N′-(2-piperidinoethyl)urea]",26 nM,–,–,632 nM,–
"COc1cc2nccc(Oc3ccc(NC(=O)OCCCOc4ccccc4OC)c(C)c3C)c2cc1OC [Example 158, 3-(2-Methoxyphenoxy)propyl N-{4-[(6,7-dimethoxy-4-quinolyl)oxy]-2,3-dimethylphenyl}carbamate]",–,107 nM,12 nM,–,–
"COc1cc2nccc(Oc3ccc(NC(=S)NCc4ccccc4)cc3Cl)c2cc1OC [Example 706, N-Benzyl-N′-{3-chloro-4-[(6,7-dimethoxy-4-quinolyl)oxy]phenyl}thiourea]",< 10 nM,–,–,227 nM,–
